Values joined by “and” are separate entries in the source; they are usually repeats but may differ in a detail not shown here. Identical values can stand only once.
Tests used:
[1] = test system: canine coronary microvessels, epicardial coronary artery and aorta; test: nitrite production (vascular NO release) in canine coronary microvessels, epicardial coronary artery and aorta; type: cell-based
[2] = test system: canine myocardium; test: cardiac oxygen consumption in canine myocardium in vitro; type: cell-based
[3] = test system: hypoxic Langendorff mouse hearts; test: hypoxic Langendorff mouse hearts perfused with enantiomer: myocardial glucose uptake and time to cessation of beating; conditions: hypoxic heart, 10^−7M solution
[4] = test system: vascular smooth muscle cell; conditions: in vitro; cited from earlier work
[5] = in vivo; cited from earlier work
[6] = test system: calcium channel; conditions: cited from earlier work
[7] = identical study, increasing concentrations

| Structure (SMILES) | effect of NO synthase inhibitor L-NAME on the increase in nitrite production [1] | concentration-dependent increase in nitrite production, up to ([1]; enantiomer concentration of 10^−9M) | free concentration at which maximum NO release as measured by nitrite production was observed ([1]; free concentration) | effect of NO synthase inhibitor L-NAME on the reduction in oxygen consumption [2] | reduction in oxygen consumption ([2]; enantiomer concentration of 10^−5M) | increase in survival time [3] | reduction in myocardial glucose uptake [3] | time to cessation of beating (TCB) ([3]; untreated 9 minutes) | myocardial glucose uptake (MGU) ([3]; untreated hypoxic 0.57, normoxic 0.36) | PDGF-induced vascular smooth muscle cell migration [4] | nitrite production (in words) [1, 7] | reduction in oxygen consumption (in words) [2, 7] | dose in excess of which adverse effects arise (marked and sustained fall in blood pressure, reduced coronary blood flow) [5] | calcium channel-blocking activity of the racemate resides in [6] |
| --- | --- | --- | --- | --- | --- | --- | --- | --- | --- | --- | --- | --- | --- | --- |
| CCOC(=O)C1=C(COCCN)NC(C)=C(C(=O)OC)[C@H]1c1ccccc1Cl (single isomer, unassigned) [R(+) enantiomer] | wholly or partly blocked | about 65 pmol/mg | 10^−9 M and 0.4 ng/ml | wholly or partly blocked | about 30% | three-fold | over 50% | about 33 minutes | 0.27 μg/min.mg | inhibit | – | – | – | – |
| CCOC(=O)C1=C(COCCN)NC(C)=C(C(=O)OC)[C@@H]1c1ccccc1Cl (single isomer, unassigned) [S(−) enantiomer] | – | – | – | not blocked | – | – | – | – | – | – | no evidence of nitrite production | a reduction in oxygen consumption was observed | > 0.5 mg/kg | largely, but not exclusively |

— US6887886B2, “Therapeutic compositions comprising excess enantiomer” (Pfizer Inc., priority 2000, dated 2005)
